Laboratory results taken from ChEMBL document CHEMBL1136991, “Novel potent BRAF inhibitors: toward 1 nM compounds through optimization of the central phenyl ring” (J Med Chem, 2009).

Assays:
[1] = molecular target: Mitogen-activated protein kinase 14 (Homo sapiens) (UniProt Q16539); test: Inhibition of p38alpha at 1 uM relative to control
[2] = molecular target: Mitogen-activated protein kinase 11 (Homo sapiens) (UniProt Q15759); test: Inhibition of p38beta at 1 uM relative to control
[3] = molecular target: Mitogen-activated protein kinase 9 (Homo sapiens) (UniProt P45984); test: Inhibition of JNK2 at 1 uM relative to control
[4] = molecular target: RAC-beta serine/threonine-protein kinase (Homo sapiens) (UniProt P31751); test: Inhibition of PKBbeta at 1 uM relative to control
[5] = molecular target: Myosin light chain kinase, smooth muscle (Homo sapiens) (UniProt Q15746); test: Inhibition of smooth muscle MLCK at 1 uM relative to control; format: tissue-based; conditions: Muscle tissue
[6] = molecular target: Serine/threonine-protein kinase Chk2 (Homo sapiens) (UniProt O96017); test: Inhibition of CHK2 at 1 uM relative to control
[7] = molecular target: T1, Mitogen-activated protein kinase 12 (Homo sapiens) (UniProt P53778); test: Inhibition of p38-gamma at 1 uM relative to control
T1 sequence (whole entry): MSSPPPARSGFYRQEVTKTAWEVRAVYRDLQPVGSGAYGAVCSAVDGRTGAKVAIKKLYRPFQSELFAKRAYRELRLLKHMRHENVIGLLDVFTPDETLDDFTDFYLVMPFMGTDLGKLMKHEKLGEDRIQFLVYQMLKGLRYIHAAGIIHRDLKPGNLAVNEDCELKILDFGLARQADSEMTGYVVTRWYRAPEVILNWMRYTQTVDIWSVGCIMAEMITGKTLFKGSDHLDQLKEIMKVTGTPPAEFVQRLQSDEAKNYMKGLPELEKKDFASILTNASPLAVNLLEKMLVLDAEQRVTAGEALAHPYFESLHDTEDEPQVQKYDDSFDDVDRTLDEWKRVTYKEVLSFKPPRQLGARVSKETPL

[8] = Inhibition of PHK at 1 uM relative to control
[9] = molecular target: Serine/threonine-protein kinase PLK1 (Homo sapiens) (UniProt P53350); test: Inhibition of okadaic acid activated PLK1 at 1 uM relative to control
[10] = molecular target: Serine/threonine-protein kinase PLK1 (Homo sapiens) (UniProt P53350); test: Inhibition of PLK1 at 1 uM relative to control
[11] = molecular target: Serine/threonine-protein kinase Nek6 (Homo sapiens) (UniProt Q9HC98); test: Inhibition of NEK6 at 1 uM relative to control
[12] = molecular target: Ribosomal protein S6 kinase alpha-1 (Homo sapiens) (UniProt Q15418); test: Inhibition of RSK1 at 1 uM relative to control
[13] = molecular target: Rho-associated protein kinase 2 (Homo sapiens) (UniProt O75116); test: Inhibition of ROCK2 at 1 uM relative to control
[14] = molecular target: T2, Serine/threonine-protein kinase Chk1 (Homo sapiens) (UniProt O14757); test: Inhibition of CHK1 at 1 uM relative to control
T2 sequence (whole entry): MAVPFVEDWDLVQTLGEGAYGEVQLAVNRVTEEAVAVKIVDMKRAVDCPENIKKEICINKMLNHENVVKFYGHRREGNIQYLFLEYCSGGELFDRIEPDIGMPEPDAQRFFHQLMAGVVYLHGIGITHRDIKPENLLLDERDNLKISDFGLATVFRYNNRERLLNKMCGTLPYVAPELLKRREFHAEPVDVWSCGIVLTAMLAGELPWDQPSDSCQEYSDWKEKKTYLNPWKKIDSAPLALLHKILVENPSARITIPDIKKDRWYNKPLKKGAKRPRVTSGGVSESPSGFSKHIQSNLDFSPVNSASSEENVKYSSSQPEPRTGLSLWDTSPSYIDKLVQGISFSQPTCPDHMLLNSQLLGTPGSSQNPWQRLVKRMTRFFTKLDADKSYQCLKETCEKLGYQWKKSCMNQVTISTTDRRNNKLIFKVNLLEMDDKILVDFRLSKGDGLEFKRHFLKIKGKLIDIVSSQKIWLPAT

[15] = molecular target: Mitogen-activated protein kinase 1 (Homo sapiens) (UniProt P28482); test: Inhibition of ERK2 at 1 uM relative to control
[16] = molecular target: Maternal embryonic leucine zipper kinase (Homo sapiens) (UniProt Q14680); test: Inhibition of MELK at 1 uM relative to control
[17] = molecular target: Mitogen-activated protein kinase 3 (Homo sapiens) (UniProt P27361); test: Inhibition of ERK1 at 1 uM relative to control
[18] = molecular target: Ribosomal protein S6 kinase beta-1 (Homo sapiens) (UniProt P23443); test: Inhibition of S6K1 at 1 uM relative to control
[19] = molecular target: Mitogen-activated protein kinase 8 (Homo sapiens) (UniProt P45983); test: Inhibition of JNK1 at 1 uM relative to control
[20] = molecular target: MAP kinase-activated protein kinase 3 (Homo sapiens) (UniProt Q16644); test: Inhibition of MAPKAP-K3 at 1 uM relative to control
[21] = molecular target: Cyclin-dependent kinase 2 (Homo sapiens) (UniProt P24941); test: Inhibition of CDK2/cyclin A at 1 uM relative to control
[22] = molecular target: T3, MAP kinase-activated protein kinase 5 (Homo sapiens) (UniProt Q8IW41); test: Inhibition of PRAK at 1 uM relative to control
T3 sequence (whole entry): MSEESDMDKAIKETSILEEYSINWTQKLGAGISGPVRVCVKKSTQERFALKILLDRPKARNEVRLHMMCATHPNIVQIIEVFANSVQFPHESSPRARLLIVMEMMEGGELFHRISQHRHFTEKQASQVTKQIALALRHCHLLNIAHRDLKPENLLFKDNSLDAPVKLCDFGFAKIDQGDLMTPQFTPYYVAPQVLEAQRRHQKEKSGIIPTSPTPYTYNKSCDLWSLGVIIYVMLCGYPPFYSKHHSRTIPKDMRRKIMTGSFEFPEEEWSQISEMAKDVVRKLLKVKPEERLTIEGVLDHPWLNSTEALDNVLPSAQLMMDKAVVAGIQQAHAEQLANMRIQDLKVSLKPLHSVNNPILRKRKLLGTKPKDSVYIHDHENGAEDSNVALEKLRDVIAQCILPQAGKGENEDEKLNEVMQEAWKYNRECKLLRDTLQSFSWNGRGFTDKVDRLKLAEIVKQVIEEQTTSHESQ

[23] = Inhibition of p38S at 1 uM relative to control
[24] = molecular target: Tyrosine-protein kinase Lck (Homo sapiens) (UniProt P06239); test: Inhibition of Lck at 1 uM relative to control

Sequence of Mitogen-activated protein kinase 8 (Homo sapiens) (P45983 whole entry): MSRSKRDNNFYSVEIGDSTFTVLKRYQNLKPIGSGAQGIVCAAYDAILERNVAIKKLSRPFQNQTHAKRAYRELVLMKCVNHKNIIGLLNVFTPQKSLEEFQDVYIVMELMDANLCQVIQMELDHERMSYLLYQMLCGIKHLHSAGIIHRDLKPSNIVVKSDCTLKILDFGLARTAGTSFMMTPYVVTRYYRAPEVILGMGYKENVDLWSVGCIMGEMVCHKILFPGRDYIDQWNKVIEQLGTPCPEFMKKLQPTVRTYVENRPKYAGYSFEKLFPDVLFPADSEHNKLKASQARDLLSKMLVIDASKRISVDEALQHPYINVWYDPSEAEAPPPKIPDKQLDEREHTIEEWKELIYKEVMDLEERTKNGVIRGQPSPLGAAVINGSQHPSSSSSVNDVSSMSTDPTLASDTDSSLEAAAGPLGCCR
Sequence of Serine/threonine-protein kinase Chk2 (Homo sapiens) (O96017 whole entry): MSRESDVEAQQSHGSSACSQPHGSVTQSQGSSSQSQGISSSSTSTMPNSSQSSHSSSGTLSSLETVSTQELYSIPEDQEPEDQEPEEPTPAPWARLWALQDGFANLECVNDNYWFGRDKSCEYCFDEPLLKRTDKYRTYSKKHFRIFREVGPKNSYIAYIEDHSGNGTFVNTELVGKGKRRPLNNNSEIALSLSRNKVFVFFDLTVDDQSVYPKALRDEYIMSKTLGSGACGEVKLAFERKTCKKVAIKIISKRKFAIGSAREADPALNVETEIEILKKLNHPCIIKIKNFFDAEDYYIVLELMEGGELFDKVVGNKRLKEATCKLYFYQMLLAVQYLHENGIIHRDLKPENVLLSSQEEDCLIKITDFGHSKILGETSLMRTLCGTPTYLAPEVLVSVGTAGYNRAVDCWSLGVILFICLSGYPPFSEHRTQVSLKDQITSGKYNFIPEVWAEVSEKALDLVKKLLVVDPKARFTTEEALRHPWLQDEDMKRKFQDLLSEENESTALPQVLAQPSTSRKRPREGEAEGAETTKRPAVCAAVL
Sequence of MAP kinase-activated protein kinase 3 (Homo sapiens) (Q16644 whole entry, looked up): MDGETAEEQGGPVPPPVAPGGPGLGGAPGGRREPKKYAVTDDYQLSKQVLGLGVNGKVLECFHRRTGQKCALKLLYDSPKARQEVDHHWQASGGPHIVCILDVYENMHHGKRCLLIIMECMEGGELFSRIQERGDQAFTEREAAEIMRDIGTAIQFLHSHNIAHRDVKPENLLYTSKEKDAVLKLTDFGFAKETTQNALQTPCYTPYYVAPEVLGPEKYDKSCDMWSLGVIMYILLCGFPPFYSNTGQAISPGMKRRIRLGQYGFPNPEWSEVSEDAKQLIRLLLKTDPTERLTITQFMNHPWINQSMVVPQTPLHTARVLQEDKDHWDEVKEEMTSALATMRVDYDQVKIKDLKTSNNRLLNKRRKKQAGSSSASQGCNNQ
Sequence of Myosin light chain kinase, smooth muscle (Homo sapiens) (Q15746 whole entry): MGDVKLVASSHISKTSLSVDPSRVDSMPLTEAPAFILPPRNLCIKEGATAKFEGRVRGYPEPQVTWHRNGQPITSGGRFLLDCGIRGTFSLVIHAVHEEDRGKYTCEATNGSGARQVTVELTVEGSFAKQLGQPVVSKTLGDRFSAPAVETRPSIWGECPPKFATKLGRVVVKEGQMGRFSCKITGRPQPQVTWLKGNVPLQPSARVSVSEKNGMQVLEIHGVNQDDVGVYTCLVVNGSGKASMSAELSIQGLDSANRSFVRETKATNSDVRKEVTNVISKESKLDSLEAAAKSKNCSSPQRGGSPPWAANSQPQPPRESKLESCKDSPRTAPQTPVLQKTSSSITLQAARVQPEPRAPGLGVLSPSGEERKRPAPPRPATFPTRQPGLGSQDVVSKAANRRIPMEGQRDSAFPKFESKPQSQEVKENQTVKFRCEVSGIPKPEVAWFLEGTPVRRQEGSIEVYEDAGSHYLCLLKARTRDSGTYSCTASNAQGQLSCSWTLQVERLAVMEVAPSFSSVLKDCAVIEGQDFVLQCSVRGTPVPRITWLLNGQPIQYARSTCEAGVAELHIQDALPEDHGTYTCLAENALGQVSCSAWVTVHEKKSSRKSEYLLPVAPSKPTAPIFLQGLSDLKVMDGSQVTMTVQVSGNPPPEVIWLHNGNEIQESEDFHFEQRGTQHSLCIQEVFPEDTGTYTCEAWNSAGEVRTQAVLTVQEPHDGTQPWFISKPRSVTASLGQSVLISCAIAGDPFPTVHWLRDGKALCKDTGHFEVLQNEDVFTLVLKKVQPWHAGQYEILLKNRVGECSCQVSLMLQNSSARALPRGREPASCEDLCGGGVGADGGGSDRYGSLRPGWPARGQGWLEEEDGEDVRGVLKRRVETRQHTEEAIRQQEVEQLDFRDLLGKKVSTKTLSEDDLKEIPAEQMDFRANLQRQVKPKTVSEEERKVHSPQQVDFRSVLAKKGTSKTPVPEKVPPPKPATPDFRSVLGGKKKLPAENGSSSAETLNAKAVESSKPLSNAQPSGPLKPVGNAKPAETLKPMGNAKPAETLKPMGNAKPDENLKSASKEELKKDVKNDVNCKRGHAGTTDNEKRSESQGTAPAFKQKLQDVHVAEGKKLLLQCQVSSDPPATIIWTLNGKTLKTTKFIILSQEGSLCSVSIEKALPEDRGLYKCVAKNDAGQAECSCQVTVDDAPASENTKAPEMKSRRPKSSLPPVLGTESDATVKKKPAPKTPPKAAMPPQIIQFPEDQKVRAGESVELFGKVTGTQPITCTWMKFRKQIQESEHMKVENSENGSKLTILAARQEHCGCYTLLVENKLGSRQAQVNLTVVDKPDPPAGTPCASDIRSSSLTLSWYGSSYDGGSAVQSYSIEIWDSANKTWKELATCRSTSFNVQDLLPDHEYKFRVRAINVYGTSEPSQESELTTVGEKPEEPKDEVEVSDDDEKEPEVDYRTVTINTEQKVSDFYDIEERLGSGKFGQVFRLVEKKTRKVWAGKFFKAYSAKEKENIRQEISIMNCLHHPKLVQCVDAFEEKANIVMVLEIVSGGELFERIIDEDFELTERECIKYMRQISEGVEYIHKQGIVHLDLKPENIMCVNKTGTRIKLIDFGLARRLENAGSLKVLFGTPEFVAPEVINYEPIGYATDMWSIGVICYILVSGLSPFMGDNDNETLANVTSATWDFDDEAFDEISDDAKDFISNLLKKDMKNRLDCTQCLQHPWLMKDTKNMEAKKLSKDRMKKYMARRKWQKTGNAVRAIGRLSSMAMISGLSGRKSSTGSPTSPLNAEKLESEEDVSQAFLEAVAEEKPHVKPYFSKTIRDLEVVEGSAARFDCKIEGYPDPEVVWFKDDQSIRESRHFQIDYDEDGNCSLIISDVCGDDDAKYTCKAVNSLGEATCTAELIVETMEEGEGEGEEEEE
Sequence of Serine/threonine-protein kinase PLK1 (Homo sapiens) (P53350 whole entry): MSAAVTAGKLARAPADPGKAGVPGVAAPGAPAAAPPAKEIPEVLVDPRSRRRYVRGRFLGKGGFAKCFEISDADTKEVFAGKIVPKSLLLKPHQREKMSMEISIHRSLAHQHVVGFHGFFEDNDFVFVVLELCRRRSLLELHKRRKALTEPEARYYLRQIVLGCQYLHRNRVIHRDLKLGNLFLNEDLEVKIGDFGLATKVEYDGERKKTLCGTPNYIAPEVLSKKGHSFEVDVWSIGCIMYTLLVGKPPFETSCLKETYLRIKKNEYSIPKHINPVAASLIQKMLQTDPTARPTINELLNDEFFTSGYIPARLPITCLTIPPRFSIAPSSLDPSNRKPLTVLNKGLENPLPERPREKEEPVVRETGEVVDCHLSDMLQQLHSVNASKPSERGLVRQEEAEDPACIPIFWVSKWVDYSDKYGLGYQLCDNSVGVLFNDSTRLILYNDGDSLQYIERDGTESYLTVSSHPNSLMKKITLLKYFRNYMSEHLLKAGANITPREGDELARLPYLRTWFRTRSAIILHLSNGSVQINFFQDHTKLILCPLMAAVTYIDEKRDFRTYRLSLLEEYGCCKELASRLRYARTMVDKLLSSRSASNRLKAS
Sequence of Ribosomal protein S6 kinase alpha-1 (Homo sapiens) (Q15418 whole entry): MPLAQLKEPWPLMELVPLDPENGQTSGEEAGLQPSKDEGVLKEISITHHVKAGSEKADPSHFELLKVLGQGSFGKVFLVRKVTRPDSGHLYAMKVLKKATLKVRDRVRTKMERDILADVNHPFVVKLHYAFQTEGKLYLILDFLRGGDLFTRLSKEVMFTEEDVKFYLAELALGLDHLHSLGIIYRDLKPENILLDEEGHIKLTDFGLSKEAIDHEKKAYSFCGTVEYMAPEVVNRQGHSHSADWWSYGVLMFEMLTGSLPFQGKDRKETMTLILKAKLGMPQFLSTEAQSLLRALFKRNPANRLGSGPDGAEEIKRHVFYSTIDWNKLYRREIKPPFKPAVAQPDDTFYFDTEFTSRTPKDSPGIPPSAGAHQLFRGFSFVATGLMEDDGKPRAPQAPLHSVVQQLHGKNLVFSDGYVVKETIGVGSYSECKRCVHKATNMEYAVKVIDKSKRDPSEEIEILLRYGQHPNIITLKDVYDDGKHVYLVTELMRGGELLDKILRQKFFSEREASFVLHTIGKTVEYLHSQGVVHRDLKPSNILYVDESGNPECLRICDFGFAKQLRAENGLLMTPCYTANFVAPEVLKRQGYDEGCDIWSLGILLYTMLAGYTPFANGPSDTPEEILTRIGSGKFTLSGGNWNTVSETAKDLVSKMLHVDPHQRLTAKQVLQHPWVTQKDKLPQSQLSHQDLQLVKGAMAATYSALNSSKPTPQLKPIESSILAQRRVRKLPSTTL
Sequence of Mitogen-activated protein kinase 14 (Homo sapiens) (Q16539 whole entry): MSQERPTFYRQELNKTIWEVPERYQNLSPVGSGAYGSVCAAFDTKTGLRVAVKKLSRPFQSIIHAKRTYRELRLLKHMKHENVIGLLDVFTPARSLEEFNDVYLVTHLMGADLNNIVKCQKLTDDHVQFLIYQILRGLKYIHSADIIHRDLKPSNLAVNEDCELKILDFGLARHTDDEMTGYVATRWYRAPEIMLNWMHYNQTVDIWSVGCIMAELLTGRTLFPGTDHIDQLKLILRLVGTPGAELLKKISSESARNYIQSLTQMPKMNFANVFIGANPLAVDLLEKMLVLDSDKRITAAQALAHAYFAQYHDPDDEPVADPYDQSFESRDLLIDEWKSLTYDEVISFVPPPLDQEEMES

| Compound | residual activity [1] [%] | residual activity [2] [%] | residual activity [3] [%] | residual activity [4] [%] | residual activity [5] [%] | residual activity [6] [%] | residual activity [7] [%] | residual activity [8] [%] | residual activity [9] [%] | residual activity [10] [%] | residual activity [11] [%] | residual activity [12] [%] | residual activity [13] [%] | residual activity [14] [%] | residual activity [15] [%] | residual activity [16] [%] | residual activity [17] [%] | residual activity [18] [%] | residual activity [19] [%] | residual activity [20] [%] | further results |
| --- | --- | --- | --- | --- | --- | --- | --- | --- | --- | --- | --- | --- | --- | --- | --- | --- | --- | --- | --- | --- | --- |
| O=C(Nc1cc(C(F)(F)F)ccc1F)Nc1ccc(Oc2ccnc3[nH]c(=O)[nH]c23)c2ccccc12 | 100 | < 25 | 50 | 100 | 100 | 100 | 50 | 100 | 100 | 100 | 100 | 75 | 75 | 100 | 100 | 100 | 100 | 75 | 75 | 100 | residual activity [21]: 100%; residual activity [22]: 75%; residual activity [23]: 75%; residual activity [24]: < 25% |
| CC(C)(C)c1cccc(NC(=O)Nc2ccc(Oc3ccnc4[nH]c(=O)[nH]c34)c3ccccc23)c1 | < 25 | < 25 | < 25 | 75 | 75 | 75 | < 25 | 75 | 75 | 75 | 75 | 75 | 75 | 75 | 75 | 75 | 100 | 100 | 75 | 100 | residual activity [21]: 100%; residual activity [22]: 75%; residual activity [23]: 50%; residual activity [24]: < 25% |
| CSc1cc(Oc2ccnc3[nH]c(=O)[nH]c23)ccc1NC(=O)Nc1cccc(C(F)(F)F)c1 | < 25 | < 25 | 100 | 100 | 100 | 100 | 50 | 100 | 100 | 100 | 100 | 100 | 75 | 100 | 100 | 100 | 100 | 100 | 100 | 100 | residual activity [21]: 100%; residual activity [22]: 75%; residual activity [23]: 50%; residual activity [24]: < 25% |
